Results from patent US6482982B1, “Halogenated antituberculosis agents” (University of Sciences of Philadelphia, priority 2001, dated 2002).
In brackets after ≈: the same amount, converted by molar mass.

How the values were obtained:
M. tuberculosis H37Rv = assay: MIC determination by Microplate Alamar Blue Assay (MABA) against H37Rv; type: cell-based, Mycobacterium tuberculosis; settings: Mycobacterium tuberculosis, H37RV; Alamar assay, confirmatory testing alongside drug-resistant strains; read-out: MIC H37Rv
[1] = tested on: isoniazid-resistant Mycobacterium tuberculosis (ATCC 35822); assay: microbe, parasite or virus in culture; type: cell-based; settings: ATCC35822, read-out: MIC INH-R
[2] = tested on: rifampin-resistant Mycobacterium tuberculosis (ATCC 35838); assay: microbe, parasite or virus in culture; type: cell-based; settings: ATCC35838, Alamar assay
[3] = tested on: ethambutol-resistant Mycobacterium tuberculosis; assay: microbe, parasite or virus in culture; type: cell-based; settings: read-out: MIC EMB-R
[4] = tested on: kanamycin-resistant Mycobacterium tuberculosis; assay: microbe, parasite or virus in culture; type: cell-based; settings: read-out: MIC KM-R
[5] = tested on: ciprofloxacin-resistant Mycobacterium tuberculosis; assay: microbe, parasite or virus in culture; type: cell-based; settings: read-out: MIC CIP-R
[6] = tested on: single-drug resistant M. tuberculosis strains; type: cell-based, Mycobacterium tuberculosis; settings: judged from the ratios in Table 5

Row | SMILES | MIC (M. tuberculosis H37Rv) [µg/mL] | MIC [1] [µg/mL] | MIC [2] [µg/mL] | MIC [3] [µg/mL] | MIC [4] [µg/mL] | MIC [5] [µg/mL] | cross-resistance with isoniazid, rifampin, ethambutol, kanamycin or ciprofloxacin [6]
1 | Nc1cc(O)c(C(=O)O)cc1F [Compound 12, 4-Amino-5-fluorosalicylic Acid] | ≤ 3.13 | 25 (≈ 146 µM) | 6.25 (≈ 36.5 µM) | ≤ 3.13 | 6.25 (≈ 36.5 µM) | 6.25 (≈ 36.5 µM) | 
2 | CC(=O)Nc1ccc(/C=N/NC(N)=S)cc1F [Compound 16, 4-Acetamido-3-fluorobenzaldehyde thiosemicarbazone] | ≤ 0.1 | ≤ 0.1 | ≤ 0.1 | 0.2 (≈ 0.787 µM) | ≤ 0.1 | ≤ 0.1 | no cross-resistance
